Laboratory results taken from US8043422B2, “Combinations of phenylpyrroles and pyrion compounds” (Janssen Pharmaceutica, NV, priority 2008, dated 2011).
Like-named read-outs stand apart in the source and are kept apart here.

Columns and labels:
Type in all cases: cell-based
[1] = system: Ulocladium atrum IMI214699a; test: Poison Plate Assay, fungi
Method: (§1) • Test models: • Fungi: to each well of a 24-well microtiter plate, 1000 μl of a rich (Potato Dextrose Agar, PDA: 4 g potato infusion, 20 g bacto dextrose and 15 g bacto agar in 1 liter deionised water) or poor (Glucose Agar, GA: 10 g glucose, 1.5 g K2HPO4, 2 g KH2PO4, 1 g (NH4)2SO4, 0.5 g MgSO4 and 12.5 g agar in 1 liter deionised water) medium containing the appropriate combination of the test compounds in one of the concentrations of a dose series is added. The nutrient medium is inoculated with the test fungi by adding a spore/mycelium suspension (10 μl) or a small piece of agar from the margin of an actively growing colony and incubated under dark at 27° C. with 70% relative humidity. The growth of the fungi is evaluated after two weeks. • Glucose agar was used in some experiments instead of PDA (Potato Dextrose Agar), as an alternative, poorer medium for the fungi, in order to increase the chances of detecting activity in compounds like fludioxonil, whose mode of action could be partly circumvented by fungi on a richer medium (Copping, L. and Hewitt, G. (1998) “Chemistry and mode of action of crop protection agents.” The Royal Society of Chemistry, Cambridge. 145 pp.). • Bacteria: to each well of a 24-well microtiter plate, 1000 μL Tryptose Agar (TA, 20 g bacto tryptose agar, 5 g sodium chloride, 1 g bacto dextrose and 15 g agar in 1 liter deionised water), containing the test compounds in one of the concentrations of a dose series is added. The nutrient medium is inoculated by adding 10 μl of an actively growing liquid culture of the test bacteria in tryptose broth (without agar), and incubated under dark at 27° C. with 70% relative humidity. Growth is evaluated after five days. • Concentrations: • MIC values for single compounds were collected from previous screening experiments. These MIC values were used as a guide in determining of the most suitable test dose ranges. • Synergy experiment with bispyrithione: • 25.00-18.75-14.06-10.55-7.91-5.93-4.45-3.34-2.50-1.88-1.41-1.06 ppm • Synergy experiment with sodium pyrithione: • 10.00-7.50-5.63-4.22-3.16-2.37-1.78-1.33-1.00-0.75-0.56-0.42 ppm Test combinations:
(§2) (2000) “Measuring synergy” cosmetics & Toiletries 115(11): 59-62; and Lada, A., A. N. Petrocci, H. A. Green, and J. J. Merianos (1977) “Antimicrobial composition” U.S. Pat. No. 4,061,750, 3 pp.):
(§3) [formula] wherein: • QA is the concentration of compound A in ppm, acting alone, which produced an end point (e.g. MIC), • Qa is the concentration of compound A in ppm, in the mixture, which produced an end point (e.g. MIC), • QB is the concentration of compound B in ppm, acting alone, which produced an end point (e.g. MIC), • Qb is the concentration of compound B in ppm, in the mixture, which produced an end point (e.g. MIC). […]

[2] = system: Staphylococcus aureus (g+) LMG 8064; test: Poison Plate Assay, bacteria; conditions: for MIC-values (minimum inhibitory concentration) in ppm: fludioxonil (I-a) with sodium pyrithione (II-h); for MIC: LMG8064, 120 h, read-out: MIC-values (minimum inhibitory concentration) in ppm
Method: as §1, §2, §3

[3] = system: Coriolus versicolor CTB863A; test: Poison Plate Assay, fungi; conditions: Trametes versicolor, 336 h, read-out: MIC-values (minimum inhibitory concentration) in ppm
Method: as §1, §2, §3

[4] = ppm total active ingredient, Tryptose Agar, 27° C., growth evaluated after five days

For `[Na+].[O-][n+]1ccccc1[S-]` [sodium pyrithione (II-h), sodium pyrithione], the “MIC-values (minimum inhibitory concentration) in ppm” value ([1]; Ulocladium atrum, fludioxonil (I-a) with sodium pyrithione (II-h), ppm total active ingredient, 27° C., growth evaluated after two weeks) was 2.37 ppm and the “MIC-values (minimum inhibitory concentration) in ppm” value [2, 4] was 4.22 ppm.
`[O-][n+]1ccccc1SSc1cccc[n+]1[O-]` [pyrion disulfide (II-g), pyrion disulfide] showed an MIC ([3]; Coriolus versicolor, fludioxonil (I-a) with pyrion disulfide (II-g), ppm total active ingredient, 27° C., growth evaluated after two weeks) of 18.8 µg/mL and an MIC ([2]; fludioxonil (I-a) with pyrion disulfide (II-g), ppm total active ingredient, Tryptose Agar, 27° C., growth evaluated after five days) of 4.45 µg/mL.
For `N#Cc1c[nH]cc1-c1cccc2c1OC(F)(F)O2` [fludioxonil (I-a), 4-(2,2-difluoro-1,3-benzodioxol-4-yl)-1H-pyrrole-3-carbonitrile], the MIC [3] was 40 µg/mL, the MIC ([1]; Alternaria atra, IMI214699A, 336 h, read-out: MIC-values (minimum inhibitory concentration) in ppm) was 100 µg/mL and the MIC [2] was 40 µg/mL. For the same compound, the “MIC-values (minimum inhibitory concentration) in ppm” value [2, 4] was 40.00 ppm.
